Tests used:
human blood = assay: Blood compatibility study (haemolysis)
Procedure: This study was carried out by Biochemical Pharmacology department at Inveresk Research, Scotland, in order to assess the suitability of Aurograb for intravenous administration.
Blood samples were taken from healthy human volunteers, transferred to tubes containing Aurograb, Aurograb vehicle, saponin or saline and incubated at 37° C. for 1 hour. After centrifugation, the amount of haemoglobin in the supernatant was then assessed to determine haemolysis.

EMRSA strains = assay: MIC of vancomycin or flucloxacillin with and without Aurograb (Table 3a); format: cell-based, S. aureus; conditions: Staphylococcus aureus; all EMRSA strains; read-out: MIC of flucloxacillin
Procedure: Strains of MRSA were grown overnight in nutrient broth and diluted to give an inoculum of 1×10^3 cells per mL. […] Cultures were incubated for a further 2 days. The minimum growth-inhibitory concentration (MIC) is defined as the […] concentration of antibiotic at which no bacterial growth occurs and is determined by spectrophotometric evaluation of the lack of turbidity (growth) in culture. MICs were determined in the presence of exogenous Aurograb or in the presence of Aurograb formulation buffer (negative control).
The experiments were also performed using flucloxacillin instead of vancomycin to investigate how the efficacy of penicillin-type […] was affected by Aurograb.

| Molecule | Haemolysis classification (ASTM F756-93) (human blood) | MIC (EMRSA strains) [µg/mL] |
| --- | --- | --- |
| saponin | severely haemolytic |  |
| Cc1onc(-c2c(F)cccc2Cl)c1C(=O)N[C@@H]1C(=O)N2[C@@H]1SC(C)(C)[C@@H]2C(=O)O [flucloxacillin] |  | > 256 |
